Test results reported in patent US20220383986A1, “Complex System for Contextual Spectrum Mask Generation Based on Quantitative Imaging” (The Board of Trustees of the University of Illinois, priority 2021, published 2022).

How the values were obtained:
CHO cells [1] = experiment: time-lapse SLIM recording of CHO cells with and without staurosporine; type: cell-based, Chinese hamster; details: 1 μM staurosporine in medium, measured for 10 hours, 37° C. and 5% CO2
Experimental: CHO cells were plated on a glass bottom 6-well plate for optimal confluency. In addition to NucBlue/NucGreen staining, 1 μM of staurosporine (apoptotic inducing reagent) solution was added to the culture medium. This potent reagent permeates cell membrane and disrupts protein kinase, cAMP, and lead to apoptosis in 4-6 hours. The cells were then measured by SLIM and epi-fluorescence microscopy. The cells were maintained in regular incubation condition (37° C. and 5% concentration of CO2) throughout the experiment. In addition, it is verified that the cells were not affected by necrosis and lytic cell death.
PICS on CHO cells and Evaluate the effect of lytic cell death: Before performing experiments on CHO cells, a preliminary study was conducted, as follows. Live cell cultures were prepared and split into the two groups. 1 μM of staurosporine was added into the medium of the experimental group, whereas the others were kept intact as control. Both control and experimental cells were measured with SLIM for 10 hours under regular incubation condition (37° C. and 5% concentration of CO2).

CHO cells [2] = details: 1 μM staurosporine added to culture medium; general description of the reagent; cited from earlier work

Compound: CN[C@@H]1C[C@H]2O[C@@](C)([C@@H]1OC)n1c3ccccc3c3c4c(c5c6ccccc6n2c5c31)C(=O)NC4 [staurosporine]
- cell characteristics in SLIM (QPI) images versus untreated control (CHO cells [1]): cell volume decreased, and membrane ruptured or became detached
- time to apoptosis (CHO cells [2]): 4 to 6 h
